Source: PMC4869175, “Evidence that phytochrome functions as a protein kinase in plant light signalling” (Nature Communications, 2016)

Molecular target: T1, photosensory core of AsphyA (66-610) (Avena sativa, UniProt P06593)
T1 construct: the PAS-GAF-PHY photosensory core (66–610aa) were also cloned into pPIC3.5K; made in house; host or cells: Pichia pastoris GS115
T1 sequence (P06593 66-610): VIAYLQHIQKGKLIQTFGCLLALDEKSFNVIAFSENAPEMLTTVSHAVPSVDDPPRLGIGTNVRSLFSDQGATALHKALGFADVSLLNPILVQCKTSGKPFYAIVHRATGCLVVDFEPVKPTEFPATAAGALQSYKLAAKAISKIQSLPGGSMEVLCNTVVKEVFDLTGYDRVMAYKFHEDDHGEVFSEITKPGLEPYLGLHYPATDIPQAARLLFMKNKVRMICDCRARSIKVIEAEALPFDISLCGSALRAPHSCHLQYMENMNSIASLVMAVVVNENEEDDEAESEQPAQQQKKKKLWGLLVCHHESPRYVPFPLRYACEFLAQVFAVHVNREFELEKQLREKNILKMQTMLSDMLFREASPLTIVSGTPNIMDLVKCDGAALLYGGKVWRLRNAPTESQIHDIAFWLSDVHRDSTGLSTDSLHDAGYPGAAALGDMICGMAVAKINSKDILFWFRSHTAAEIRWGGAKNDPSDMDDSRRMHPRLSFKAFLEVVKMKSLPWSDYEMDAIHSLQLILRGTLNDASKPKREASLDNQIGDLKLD
Assay: Photoaffinity labelling of the photosensory core with 8-azido-ATP and competition by unlabeled ATP
Assay type: binding
Conditions: 10 μM 8-azido-ATP
Procedure: To investigate ATP-binding to AsphyA proteins, photoaffinity labelling experiments were carried out using 8-N3-ATP-biotin-long chain-hydrazone (8-azido-ATP), which were purchased from Affinity Labeling Technologies, Inc. Purified phytochrome proteins (1.0 μg) were pre-incubated for 30 min on ice in 50 μl of photoaffinity labelling buffer (20 mM Tris-HCl, pH 7.0, 2 mM EDTA, 2 mM MgCl2 and 150 μM ATP), and then 8-azido-ATP was applied with indicated concentrations. After incubation for 5 more min on ice, ultraviolet light at 254 nm was then irradiated for 90 s using a hand-held ultraviolet lamp at 4 cm from the surface of the reaction mixtures. Immediately after photoaffinity labelling, reactions were stopped by adding SDS sample buffer, and the 8-azido-ATP-labelled phytochromes were detected with 1:2,000 avidin-HRP (A-115, Boston Biochem). After development, the images were scanned and opened by ImageJ, a Java-based image-processing software, to quantitate the photoaffinity labelling with azido-ATP analogues. Background signal was subtracted before normalization. […]
Supplementary Figure 11. […] 8-azido-ATP labeled proteins were then detected using avidin-HRP. […] The band intensities were quantified using ImageJ software, and the percentages of 8-azido-ATP labeling were normalized to the 66-610 protein signals. […]

Compound	photoaffinity labelling of the photosensory core (UV 90 s, Pr and Pfr forms)	concentration of unlabeled ATP that inhibited 8-azido-ATP photoaffinity labeling (unlabeled ATP 0-30 mM)
8-N3-ATP-biotin-long chain-hydrazone [8-azido-ATP]	labelled	
Nc1ncnc2c1ncn2[C@@H]1O[C@H](COP(=O)(O)OP(=O)(O)OP(=O)(O)O)[C@@H](O)[C@H]1O [ATP]		approximately 7.5 mM
